Patent US20220127337A1 (priority 2020, published 2022)

Tests used:
SARS-CoV = conditions: Lu W et al. Proc Natl Acad Sci USA 103, 12540-12545 (2006); cited from earlier work
[1] = tested on: CoV-2 ORF3a-mediated activation of caspase 1; format: cell-based, human

[Ba+2] [barium]
release of SARS-CoV virions (SARS-CoV): block the release of SARS-CoV virions
CoV-2 ORF3a-mediated activation of caspase 1 [1]: able to curb CoV-2 ORF3a-mediated activation of caspase 1
